Assay results published in ChEMBL document CHEMBL5537169, “Structure-Activity Relationships and Discovery of (S)-6-Isopropyl-2-methoxy-3-(3-methoxypropoxy)-10-oxo-5,10-dihydro-6H-pyrido[1,2-h][1,7]naphthyridine-9-carboxylic Acid (AB-452), a Novel Orally Available HBV RNA Destabilizer” (J Med Chem, 2024).
pEC50: −log10 of the molar value. Calls of active or inactive are those of the source. No cut-off for these calls is given here.

Key:
[1] = Apparent volume of distribution at steady state in CD-1 mouse at 10 mg/kg,po measured at 0.083 to 24 hrs post administration by LC-MS/MS analysis; assay type: ADME, organism-based; conditions: in vivo, time 0.083-24 hrs
[2] = Tmax in CD-1 mouse at 10 mg/kg,po measured at 0.083 to 24 hrs post administration by LC-MS/MS analysis; assay type: ADME, organism-based; conditions: in vivo, time 0.083-24 hrs
[3] = Apparent volume of distribution at steady state in Sprague-Dawley rat at 10 mg/kg,po measured at 0.083 to 24 hrs post administration by LC-MS/MS analysis; assay type: ADME, organism-based; conditions: in vivo, time 0.083-24 hrs
[4] = Cardiotoxicity in Langendorff-perfused New Zealand White rabbit heart assessed as increase in PR interval upto 10 uM incubated for 45 mins by ECG analysis; assay type: toxicity, tissue-based, Oryctolagus cuniculus; conditions: 0.75 h
[5] = Toxicity in dog assessed as NOAEL administrated for 28 days; parameters: species or system Canis lupus familiaris; conditions: in vivo, time 28 day
[6] = tested on: Hepatitis B virus; assay: Antiviral activity against AAV-Hepatitis B virus infected in C57BL/6 mouse assessed as serum HBsAg level at 3 mg/kg,po administrated once daily for 7 days by enzyme-linked immunoassay; assay type: functional; conditions: time 7 day
[7] = tested on: Hepatitis B virus; assay: Antiviral activity against AAV-Hepatitis B virus infected in C57BL/6 mouse assessed as liver HBsAg level at 3 to 30 mg/kg,po administrated once daily for 7 days by enzyme-linked immunoassay; assay type: functional, organism-based; conditions: dose 3-30 mg/kg, time 7.0 day
[8] = tested on: Hepatitis B virus; assay: Antiviral activity against AAV-Hepatitis B virus infected in C57BL/6 mouse assessed as liver total HBV RNA level at 3 to 30 mg/kg,po administrated once daily for 7 days by branched DNA assay; assay type: functional, organism-based; conditions: dose 3-30 mg/kg, time 7.0 day
[9] = tested on: Hepatitis B virus; assay: Antiviral activity against AAV-Hepatitis B virus infected in human Primary hepatocyte assessed as reduction in HBeAg level measured after 16 days by ELISA; assay type: functional, organism-based; conditions: 384 h

| SMILES | Vdss(app) [1] [L/kg] | Tmax [2] [h] | Vdss(app) [3] [L/kg] | Activity [4] | NOAEL at 672 h [5] [mg/kg] | Activity [6] [log10CFU] | Activity [7] | Activity [8] | pEC50 [9] |
| --- | --- | --- | --- | --- | --- | --- | --- | --- | --- |
| COCCCOc1cc2c(cc1Cl)-c1cc(=O)c(C(=O)O)cn1[C@H](C(C)C)CO2 | 1.1 | 4.1 | 0.4 |  |  |  |  |  |  |
| COCCCOc1cc2c(nc1OC)-c1cc(=O)c(C(=O)O)cn1[C@H](C(C)C)C2 |  |  |  | Non-Toxic | 30 | 0.74 | Active | Active | 8.52 |
